Reference: ChEMBL document CHEMBL1132291, “Synthesis and serotonergic activity of substituted 2, N-benzylcarboxamido-5-(2-ethyl-1-dioxoimidazolidinyl)-N, N-dimethyltryptamine derivatives: novel antagonists for the vascular 5-HT(1B)-like receptor” (J Med Chem, 1999)

Key:
[1] = test system: 5-hydroxytryptamine receptor 1B (Oryctolagus cuniculus); test: Binding affinity against vascular 5-hydroxytryptamine 1B receptor, measured using ring preparations of rabbit saphenous vein (RbSV)
[2] = test system: 5-hydroxytryptamine receptor 2A (Oryctolagus cuniculus); test: Binding affinity for 5-hydroxytryptamine 2A receptor of rabbit aorta ring preparations
[3] = test system: Adrenergic receptor alpha-1 (Oryctolagus cuniculus); test: Alpha-1 adrenergic receptor affinity using ring preparations of rabbit thoracic aorta (RbTA).
[4] = test system: 5-hydroxytryptamine receptor 1B (Oryctolagus cuniculus); test: The vascular 5-hydroxytryptamine 1B receptor affinity was assessed using ring preparations of rabbit saphenous vein (RbSV).
[5] = molecular target: T1, 5-hydroxytryptamine receptor 1A (Rattus norvegicus, UniProt P19327); test: Binding affinity against 5-hydroxytryptamine 1A receptor in rat cortex homogenates.; type: tissue-based
T1 sequence (P19327 whole entry): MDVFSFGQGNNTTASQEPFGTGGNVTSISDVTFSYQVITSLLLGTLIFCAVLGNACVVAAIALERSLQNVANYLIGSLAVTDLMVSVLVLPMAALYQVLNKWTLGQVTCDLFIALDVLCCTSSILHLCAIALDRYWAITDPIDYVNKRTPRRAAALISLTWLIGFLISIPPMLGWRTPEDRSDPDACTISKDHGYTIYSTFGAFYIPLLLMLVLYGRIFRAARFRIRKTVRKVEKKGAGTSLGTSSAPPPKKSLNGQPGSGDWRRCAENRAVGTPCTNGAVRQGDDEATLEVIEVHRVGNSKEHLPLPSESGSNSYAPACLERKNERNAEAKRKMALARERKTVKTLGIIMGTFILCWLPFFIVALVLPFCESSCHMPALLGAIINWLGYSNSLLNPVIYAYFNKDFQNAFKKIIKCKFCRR

[6] = molecular target: T2, 5-hydroxytryptamine receptor 2C (Rattus norvegicus, UniProt P08909); test: Binding affinity against 5-hydroxytryptamine 2C receptor in rat cortex homogenates.; type: tissue-based
T2 sequence (P08909 whole entry): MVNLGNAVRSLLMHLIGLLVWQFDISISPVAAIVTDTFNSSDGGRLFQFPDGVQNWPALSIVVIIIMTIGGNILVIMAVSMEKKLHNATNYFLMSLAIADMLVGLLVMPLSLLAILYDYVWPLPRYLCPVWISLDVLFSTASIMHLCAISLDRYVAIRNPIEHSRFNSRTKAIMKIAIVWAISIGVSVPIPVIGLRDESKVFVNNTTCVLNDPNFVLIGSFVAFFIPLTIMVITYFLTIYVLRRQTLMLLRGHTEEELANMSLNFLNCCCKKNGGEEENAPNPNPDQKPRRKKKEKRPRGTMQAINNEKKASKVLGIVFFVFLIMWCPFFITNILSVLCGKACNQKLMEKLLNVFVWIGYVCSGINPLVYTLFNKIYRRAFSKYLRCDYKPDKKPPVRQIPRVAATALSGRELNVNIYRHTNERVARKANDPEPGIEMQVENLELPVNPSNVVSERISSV

[7] = test system: 5-hydroxytryptamine receptor 1B (Oryctolagus cuniculus); test: The vascular 5-hydroxytryptamine 1B receptor affinity was assessed using ring preparations of rabbit saphenous vein(RbSV).

Row | Structure (SMILES) | pKB [1] | pKB [3] | other results
1 | CC(NC(=O)c1[nH]c2ccc(CCN3C(=O)NC(C)(C)C3=O)cc2c1CCN(C)C)c1ccccc1 (stereo unspecified) | 5.5 | 4.65 | pKB [2]: 5.59
2 | CCCCNC(=O)c1[nH]c2ccc(CCN3C(=O)CNC3=O)cc2c1CCN(C)C | 5.94 | – | pKB [2]: 5.2
3 | CN(C)CCc1c(C(=O)NCc2ccccc2N)[nH]c2ccc(CCN3C(=O)NC(c4ccccc4)(c4ccccc4)C3=O)cc12 | 6.31 | 5.43 | –
4 | CN(C)CCc1c(C(=O)NCc2cccc3ccccc23)[nH]c2ccc(CCN3C(=O)NC(C)(C)C3=O)cc12 | 5.5 | – | –
5 | CC(=O)Nc1ccccc1CNC(=O)c1[nH]c2ccc(CCN3C(=O)NC(C)(C)C3=O)cc2c1CCN(C)C | – | < 5 | pKB [4]: 6.04
6 | CN(C)CCc1c(C(=O)NCc2ccccc2)[nH]c2ccc(CCN3C(=O)C4CCCN4C3=O)cc12 (stereo unspecified) | 6.66 | 5.31 | –
7 | CN(C)CCc1c(C(=O)NCc2ccc(Cl)cc2)[nH]c2ccc(CCN3C(=O)CNC3=O)cc12 | 7.74 | 6.47 | pKB [2]: 6.31
8 | CN(C)CCc1c(C(=O)NCc2ccccc2)[nH]c2ccc(CCN3C(=O)NC(C)(C)C3=O)cc12 | 7.09 | 5.2 | Ki [5]: 14.8 µM; Ki [6]: 2.19 µM; pKB [2]: 5.6
9 | CN(C)CCc1c(C(N)=O)[nH]c2ccc(CCN3C(=O)CNC3=O)cc12 | < 5 | – | pKB [2]: < 5
10 | CN(C)CCc1c(C(=O)NCc2ccccc2N)[nH]c2ccc(CCN3C(=O)CNC3=O)cc12 | 6.67 | 5.73 | –
11 | CN(C)CCc1c(C(=O)NCc2ccc(C(F)(F)F)cc2)[nH]c2ccc(CCN3C(=O)NC(C)(C)C3=O)cc12 | 6.2 | < 5 | –
12 | CN(C)CCc1c(C(=O)NCc2cccc(NS(C)(=O)=O)c2)[nH]c2ccc(CCN3C(=O)NC(C)(C)C3=O)cc12 | 5.67 | 4.51 | –
13 | CN(C)CCc1c(C(=O)N(C)Cc2ccccc2)[nH]c2ccc(CCN3C(=O)NC(C)(C)C3=O)cc12 | 5.8 | 5.8 | pKB [2]: 6.03
14 | CC(=O)Nc1cccc(CNC(=O)c2[nH]c3ccc(CCN4C(=O)NC(C)(C)C4=O)cc3c2CCN(C)C)c1 | 5.68 | 4.5 | –
15 | CCOC(=O)c1[nH]c2ccc(CCN3C(=O)CNC3=O)cc2c1CCN(C)C | 7.42 | 5.43 | pKB [2]: < 5
16 | CCCCNC(=O)c1[nH]c2ccc(CCN3C(=O)NC(C)(C)C3=O)cc2c1CCN(C)C | 5.47 | – | pKB [2]: < 5
17 | CN(C)CCc1c(C(=O)N(C)C)[nH]c2ccc(CCN3C(=O)CNC3=O)cc12 | < 5 | – | pKB [2]: < 5
18 | CN(C)CCc1c(C(=O)NCc2ccccc2)[nH]c2ccc(CCN3C(=O)N(C)C(C)(c4ccccc4)C3=O)cc12 (stereo unspecified) | 7.19 | 5.5 | –
19 | CNC(=O)c1[nH]c2ccc(CCN3C(=O)CNC3=O)cc2c1CCN(C)C | 5.94 | – | pKB [2]: < 5
20 | CN(C)CCc1c(C(=O)NCc2ccccc2)[nH]c2ccc(CCN3C(=O)NC4(CCCC4)C3=O)cc12 | 7.2 | 5.48 | –
21 | CN(C)CCc1c(C(=O)NCc2ccc(-c3ccccc3)cc2)[nH]c2ccc(CCN3C(=O)NC(C)(C)C3=O)cc12 | 5.77 | 5 | –
22 | CN(C)CCc1c(C(=O)NCc2ccccc2)[nH]c2ccc(CCN3C(=O)CNC3=O)cc12 | 7.36 | 5.77 | Ki [5]: 67.6 µM; Ki [6]: 1.91 µM; pKB [2]: 6.09
23 | CN(C)CCc1c(C(=O)NCc2ccccc2)[nH]c2ccc(CCN3C(=O)NC(c4ccccc4)(c4ccccc4)C3=O)cc12 | 6.44 | 5 | –
24 | CN(C)CCc1c(C(=O)NCc2ccc(NS(C)(=O)=O)cc2)[nH]c2ccc(CCN3C(=O)NC(C)(C)C3=O)cc12 | 5.65 | < 4.5 | –
25 | CN(C)CCc1c(C(=O)NCc2ccccc2N)[nH]c2ccc(CCN3C(=O)N(C)C(C)(c4ccccc4)C3=O)cc12 (stereo unspecified) | 6.64 | 4.78 | –
26 | CN(C)CCc1c(C(=O)NCc2ccc(S(C)(=O)=O)cc2)[nH]c2ccc(CCN3C(=O)NC(C)(C)C3=O)cc12 | 5.91 | 4.52 | –
27 | CN(C)CCc1c(C(=O)NCc2ccccc2)[nH]c2ccc(CCN3C(=O)NC(C)(c4ccccc4)C3=O)cc12 (stereo unspecified) | 7.15 | 5.27 | –
28 | CON(C)C(=O)c1[nH]c2ccc(CCN3C(=O)CNC3=O)cc2c1CCN(C)C | 5.76 | – | pKB [2]: 5.3
29 | CN(C)CCc1c(C(=O)NCc2ccccc2N)[nH]c2ccc(CCN3C(=O)NC(C)(c4ccccc4)C3=O)cc12 (stereo unspecified) | 6.65 | 5.21 | –
30 | CN(C)CCc1c(C(=O)NCCc2ccccc2)[nH]c2ccc(CCN3C(=O)NC(C)(C)C3=O)cc12 | 5.57 | – | pKB [2]: 5.35

Now from value to molecule, other results behind:

Row | pKB [1] | pKB [3] | Structure (SMILES) | other results
31 | < 5 | – | CN(C)CCc1c(C(=O)NCC(N)=O)[nH]c2ccc(CCN3C(=O)NC(C)(C)C3=O)cc12 | –
32 | 6.47 | 5.17 | COc1cccc(CNC(=O)c2[nH]c3ccc(CCN4C(=O)NC(C)(C)C4=O)cc3c2CCN(C)C)c1 | –
33 | 6.61 | 5 | CN(C)CCc1c(C(=O)NCc2ccccc2O)[nH]c2ccc(CCN3C(=O)NC(C)(C)C3=O)cc12 | –
34 | 5.48 | < 4.5 | CN(C)CCc1c(C(=O)NN)[nH]c2ccc(CCN3C(=O)NC(C)(C)C3=O)cc12 | –
35 | 6.52 | 4.58 | CN(C)CCc1c(C(=O)NCc2cccc(N)c2)[nH]c2ccc(CCN3C(=O)NC(C)(C)C3=O)cc12 | –
36 | 5.81 | 5.35 | CN(C)CCc1c(C(=O)NCc2ccccc2Cl)[nH]c2ccc(CCN3C(=O)NC(C)(C)C3=O)cc12 | –
37 | 6.45 | – | CN(C)CCc1c(C(=O)NCc2cccc(Cl)c2)[nH]c2ccc(CCN3C(=O)NC(C)(C)C3=O)cc12 | –
38 | 5.44 | 4.62 | C#CCNC(=O)c1[nH]c2ccc(CCN3C(=O)NC(C)(C)C3=O)cc2c1CCN(C)C | –
39 | 7.3 | 5.46 | CN(C)CCc1c(C(=O)NCc2ccc(F)cc2)[nH]c2ccc(CCN3C(=O)NC(C)(C)C3=O)cc12 | –
40 | 6.5 | 5 | CN(C)CCc1c(C(=O)NCc2ccc(Cl)c(Cl)c2)[nH]c2ccc(CCN3C(=O)NC(C)(C)C3=O)cc12 | –
41 | 5.21 | 4.86 | CN(C)CCc1c(C(=O)Nc2ccccc2)[nH]c2ccc(CCN3C(=O)NC(C)(C)C3=O)cc12 | –
42 | 7.59 | 5.86 | CN(C)CCc1c(C(=O)NCc2ccc(Cl)cc2)[nH]c2ccc(CCN3C(=O)NC(C)(C)C3=O)cc12 | –
43 | 6.19 | 4.52 | CN(C)CCc1c(C(=O)NCc2ccc(N)cc2)[nH]c2ccc(CCN3C(=O)NC(C)(C)C3=O)cc12 | –
44 | – | 4.73 | COc1ccc(CNC(=O)c2[nH]c3ccc(CCN4C(=O)NC(C)(C)C4=O)cc3c2CCN(C)C)cc1 | pKB [7]: 6.54
45 | 6.72 | 4.79 | CN(C)CCc1c(C(=O)NCc2ccccc2N)[nH]c2ccc(CCN3C(=O)NC(C)(C)C3=O)cc12 | –
46 | 5.4 | < 4.5 | CONC(=O)c1[nH]c2ccc(CCN3C(=O)NC(C)(C)C3=O)cc2c1CCN(C)C | –
47 | 7 | 6 | Cc1ccc(CNC(=O)c2[nH]c3ccc(CCN4C(=O)NC(C)(C)C4=O)cc3c2CCN(C)C)cc1 | –
